Data published in the supplement of paper PMC8612539.
≈ marks a conversion by molar mass, not a printed value.

System: Escherichia coli
Test: minimum inhibitory concentration (MIC)
Method: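 Broth microdilution MIC (Sensititre BOPO7F bovine plate, CLSI methods) of 19 antimicrobials against field isolates of P. multocida, M. haemolytica, H. somni (deep nasopharyngeal swabs) and E. coli, Enterococcus spp. (rectal swabs) from weaned dairy heifers. Incubation 16-24 h at 35 C. MIC is the lowest concentration preventing visible growth. Values with <= or > lie at the tested range limits. Trimethoprim-sulfamethoxazole is given as the trimethoprim component of a 1:19 mixture.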

CN[C@@H]1[C@H](O)[C@H](NC)[C@H]2O[C@@]3(O)C(=O)C[C@@H](C)O[C@H]3O[C@@H]2[C@H]1O [Spectinomycin]
Conditions	minimum inhibitory concentration [mg/L]
isolate (source animal id): 8	16 (≈ 48.1 µM)
isolate (source animal id): 9	> 64
isolate (source animal id): 10	64 (≈ 193 µM)
isolate (source animal id): 11	16 (≈ 48.1 µM)
isolate (source animal id): 12	32 (≈ 96.3 µM)
isolate (source animal id): 13	16 (≈ 48.1 µM)
isolate (source animal id): 14	> 64
isolate (source animal id): 15	16 (≈ 48.1 µM)
isolate (source animal id): 16	16 (≈ 48.1 µM)
isolate (source animal id): 98	16 (≈ 48.1 µM)
isolate (source animal id): 99	16 (≈ 48.1 µM)
isolate (source animal id): 100	≤ 8
isolate (source animal id): 101	> 64
isolate (source animal id): 102	16 (≈ 48.1 µM)
isolate (source animal id): 103	> 64
isolate (source animal id): 104	16 (≈ 48.1 µM)
isolate (source animal id): 105	16 (≈ 48.1 µM)
isolate (source animal id): 106	32 (≈ 96.3 µM)
isolate (source animal id): 107	16 (≈ 48.1 µM)
isolate (source animal id): 108	16 (≈ 48.1 µM)
isolate (source animal id): 109	16 (≈ 48.1 µM)
isolate (source animal id): 110	≤ 8
isolate (source animal id): 111	16 (≈ 48.1 µM)
isolate (source animal id): 112	16 (≈ 48.1 µM)
isolate (source animal id): 113	16 (≈ 48.1 µM)
isolate (source animal id): 114	16 (≈ 48.1 µM)
isolate (source animal id): 115	> 64
isolate (source animal id): 116	16 (≈ 48.1 µM)
isolate (source animal id): 117	> 64
isolate (source animal id): 118	16 (≈ 48.1 µM)
isolate (source animal id): 119	> 64
isolate (source animal id): 120	> 64
isolate (source animal id): 121	> 64
isolate (source animal id): 122	> 64
isolate (source animal id): 123	16 (≈ 48.1 µM)
isolate (source animal id): 124	> 64
isolate (source animal id): 125	> 64
isolate (source animal id): 126	> 64
isolate (source animal id): 127	> 64
isolate (source animal id): 128	> 64
isolate (source animal id): 129	16 (≈ 48.1 µM)
isolate (source animal id): 130	> 64
isolate (source animal id): 131	16 (≈ 48.1 µM)
isolate (source animal id): 132	16 (≈ 48.1 µM)
isolate (source animal id): 133	> 64
isolate (source animal id): 134	16 (≈ 48.1 µM)
isolate (source animal id): 135	16 (≈ 48.1 µM)
isolate (source animal id): 136	16 (≈ 48.1 µM)
isolate (source animal id): 137	16 (≈ 48.1 µM)
isolate (source animal id): 138	> 64
isolate (source animal id): 139	> 64
isolate (source animal id): 140	16 (≈ 48.1 µM)
isolate (source animal id): 141	> 64
isolate (source animal id): 142	16 (≈ 48.1 µM)
isolate (source animal id): 143	> 64
isolate (source animal id): 144	16 (≈ 48.1 µM)
isolate (source animal id): 145	> 64
isolate (source animal id): 146	16 (≈ 48.1 µM)
isolate (source animal id): 147	> 64
isolate (source animal id): 148	16 (≈ 48.1 µM)
isolate (source animal id): 149	16 (≈ 48.1 µM)
isolate (source animal id): 150	> 64
isolate (source animal id): 151	16 (≈ 48.1 µM)
isolate (source animal id): 152	16 (≈ 48.1 µM)
isolate (source animal id): 153	16 (≈ 48.1 µM)
isolate (source animal id): 154	16 (≈ 48.1 µM)
isolate (source animal id): 155	> 64
isolate (source animal id): 156	> 64
isolate (source animal id): 157	> 64
isolate (source animal id): 158	16 (≈ 48.1 µM)
isolate (source animal id): 159	≤ 8
isolate (source animal id): 160	> 64
isolate (source animal id): 161	> 64
isolate (source animal id): 162	16 (≈ 48.1 µM)
isolate (source animal id): 163	16 (≈ 48.1 µM)
isolate (source animal id): 164	16 (≈ 48.1 µM)
isolate (source animal id): 165	> 64
isolate (source animal id): 166	≤ 8
isolate (source animal id): 167	16 (≈ 48.1 µM)
isolate (source animal id): 168	16 (≈ 48.1 µM)
isolate (source animal id): 169	16 (≈ 48.1 µM)
isolate (source animal id): 170	16 (≈ 48.1 µM)
isolate (source animal id): 171	16 (≈ 48.1 µM)
isolate (source animal id): 172	16 (≈ 48.1 µM)
isolate (source animal id): 173	16 (≈ 48.1 µM)
isolate (source animal id): 174	16 (≈ 48.1 µM)
isolate (source animal id): 175	16 (≈ 48.1 µM)
isolate (source animal id): 176	16 (≈ 48.1 µM)
isolate (source animal id): 177	32 (≈ 96.3 µM)
isolate (source animal id): 178	16 (≈ 48.1 µM)
isolate (source animal id): 179	16 (≈ 48.1 µM)
isolate (source animal id): 180	16 (≈ 48.1 µM)
isolate (source animal id): 181	> 64
isolate (source animal id): 182	16 (≈ 48.1 µM)
isolate (source animal id): 183	16 (≈ 48.1 µM)
isolate (source animal id): 184	16 (≈ 48.1 µM)
isolate (source animal id): 185	16 (≈ 48.1 µM)
isolate (source animal id): 186	16 (≈ 48.1 µM)
isolate (source animal id): 187	32 (≈ 96.3 µM)
isolate (source animal id): 188	32 (≈ 96.3 µM)

CN(C)[C@@H]1C(O)=C(C(N)=O)C(=O)[C@@]2(O)C(O)=C3C(=O)c4c(O)cccc4[C@@](C)(O)[C@H]3C[C@@H]12 [Tetracycline]
Conditions	minimum inhibitory concentration [mg/L]
isolate (source animal id): 8	> 8
isolate (source animal id): 9	> 8
isolate (source animal id): 10	> 8
isolate (source animal id): 11	1 (≈ 2.25 µM)
isolate (source animal id): 12	> 8
isolate (source animal id): 13	> 8
isolate (source animal id): 14	> 8
isolate (source animal id): 15	> 8
isolate (source animal id): 16	> 8
isolate (source animal id): 98	> 8
isolate (source animal id): 99	2 (≈ 4.5 µM)
isolate (source animal id): 100	> 8
isolate (source animal id): 101	> 8
isolate (source animal id): 102	> 8
isolate (source animal id): 103	> 8
isolate (source animal id): 104	> 8
isolate (source animal id): 105	> 8
isolate (source animal id): 106	> 8
isolate (source animal id): 107	> 8
isolate (source animal id): 108	> 8
isolate (source animal id): 109	> 8
isolate (source animal id): 110	> 8
isolate (source animal id): 111	> 8
isolate (source animal id): 112	> 8
isolate (source animal id): 113	> 8
isolate (source animal id): 114	> 8
isolate (source animal id): 115	> 8
isolate (source animal id): 116	> 8
isolate (source animal id): 117	> 8
isolate (source animal id): 118	> 8
isolate (source animal id): 119	> 8
isolate (source animal id): 120	> 8
isolate (source animal id): 121	> 8
isolate (source animal id): 122	> 8
isolate (source animal id): 123	> 8
isolate (source animal id): 124	> 8
isolate (source animal id): 125	> 8
isolate (source animal id): 126	> 8
isolate (source animal id): 127	> 8
isolate (source animal id): 128	> 8
isolate (source animal id): 129	> 8
isolate (source animal id): 130	> 8
isolate (source animal id): 131	> 8
isolate (source animal id): 132	> 8
isolate (source animal id): 133	> 8
isolate (source animal id): 134	> 8
isolate (source animal id): 135	2 (≈ 4.5 µM)
isolate (source animal id): 136	> 8
isolate (source animal id): 137	> 8
isolate (source animal id): 138	> 8
isolate (source animal id): 139	> 8
isolate (source animal id): 140	1 (≈ 2.25 µM)
isolate (source animal id): 141	> 8
isolate (source animal id): 142	> 8
isolate (source animal id): 143	> 8
isolate (source animal id): 144	> 8
isolate (source animal id): 145	> 8
isolate (source animal id): 146	> 8
isolate (source animal id): 147	> 8
isolate (source animal id): 148	> 8
isolate (source animal id): 149	> 8
isolate (source animal id): 150	> 8
isolate (source animal id): 151	> 8
isolate (source animal id): 152	> 8
isolate (source animal id): 153	> 8
isolate (source animal id): 154	> 8
isolate (source animal id): 155	> 8
isolate (source animal id): 156	> 8
isolate (source animal id): 157	> 8
isolate (source animal id): 158	> 8
isolate (source animal id): 159	> 8
isolate (source animal id): 160	> 8
isolate (source animal id): 161	> 8
isolate (source animal id): 162	> 8
isolate (source animal id): 163	> 8
isolate (source animal id): 164	> 8
isolate (source animal id): 165	> 8
isolate (source animal id): 166	> 8
isolate (source animal id): 167	> 8
isolate (source animal id): 168	1 (≈ 2.25 µM)
isolate (source animal id): 169	1 (≈ 2.25 µM)
isolate (source animal id): 170	> 8
isolate (source animal id): 171	1 (≈ 2.25 µM)
isolate (source animal id): 172	1 (≈ 2.25 µM)
isolate (source animal id): 173	> 8
isolate (source animal id): 174	> 8
isolate (source animal id): 175	> 8
isolate (source animal id): 176	> 8
isolate (source animal id): 177	> 8
isolate (source animal id): 178	> 8
isolate (source animal id): 179	1 (≈ 2.25 µM)
isolate (source animal id): 180	> 8
isolate (source animal id): 181	> 8
isolate (source animal id): 182	> 8
isolate (source animal id): 183	> 8
isolate (source animal id): 184	> 8
isolate (source animal id): 185	> 8
isolate (source animal id): 186	1 (≈ 2.25 µM)
isolate (source animal id): 187	> 8
isolate (source animal id): 188	> 8
